From patent US20250161312A1, “A METHOD FOR THE TREATMENT OF CHEMOTHERAPEUTIC DRUG-INDUCED NEPHROTOXICITY” (INSTITUT NATIONAL DE LA SANTÉ ET DE LA RECHERCHE MÉDICALE, priority 2022, published 2025)

Legend:
H1975 cells [1] = assay: Comet assay in H1975 cells; assay type: cell-based; details: FIG. 7E
Description: (§1) FIG. 7. […] Caspase 3/-7 activity (n=3 independent experiments) (A) and the number of γH2AX nuclear foci (n=36-63 nuclei/group) (B) were determined. […] Results are expressed as the mean±SEM (n=3 independent experiments). (E) Tail moment was assessed by comet assay. A total of 50 cells per condition were analyzed. *** P<0.001; 1-way ANOVA followed by Tukey's post hoc test. […] (I) KW6002 increased yH2AX expression in tumors from mice of the LLC1 syngeneic model. Quantification of nuclear yH2AX expression.
Treated cells were suspended (60,000 cells/mL) in low-melt agarose (1613111, Bio-Rad) 0.5% in PBS at 42° C. The suspension was then immediately spread on a comet slide (4250-200-03, R&D Systems). Agarose was allowed to cool down for 20 minutes at 4° C. Then, cell membranes were permeabilized with a lysis solution (2.5M NaCl, 100 mM EDTA, 10 mM Tris-HCl, 1% Triton X-100 [pH 10]) at 4° C. for 1 hour. […] The images were analyzed using an ImageJ in-home macro, in which the head (the nucleus) and tail (the DNA that migrated) of the comet were delimited to get the fluorescence intensity of the head, the fluorescence intensity of the tail, and the length of the tail. The calculation of tail moments was done using the following formula: (length of the comet tail×fluorescence intensity of the tail)/total fluorescence intensity (head+tail).

RPTEC/hTERT1 cells = assay: Cell efflux (EFLUXX-ID) in RPTEC/hTERT1 cells; assay type: cell-based, human; details: cisplatin-treated cells, flow cytometry, FIG. 4C
Description: FIG. 4. […] (A) Platinum quantification (n=12-20/group) and relative expression of influx transporters (CTR1 and OCT2) and efflux transporters (ATP7B, MATE1, MATE2 and ABCC2; n=10-12/group) in kidney. (B) Platinum quantification (n=12-20/group) and relative expression of influx transporters (CTR1) and efflux transporters (ATP7B, MATE1, and ABCC2; n=5-6/group) in tumors. […] Results are the mean±SEM (n=3 independent experiments)
(§2) The basic cell efflux function was assessed using an EFLUXX-ID Green Multidrug Resistance Assay Kit (ENZO Life Sciences). Briefly, 2.5×10^5 cells/condition were collected, washed with PBS, and incubated with the EFLUXX-ID Green Detection Reagent for 30 minutes at 37° C., and then efflux was measured immediately by flow cytometry (CytoFLEX LX, Beckman Coulter). All experiments were performed in triplicate, with the measurement of 10,000 individual cells. Data were analyzed using Kaluza Analysis Software (Beckman Coulter).

H1975 cells [2] = assay: Cell efflux (flow cytometry) in H1975 cells; assay type: cell-based; details: cancer cells in response to cisplatin, data not shown
Description: as §2

[3] = Cumulative model of cisplatin toxicity; assay type: in vivo; details: FIG. 5
From the text: FIG. 5. […] BUN quantification.

H1975 cells [4] = assay: Immunoblot quantification in H1975 cells; assay type: cell-based; details: 20 μM cisplatin, 10 nM KW6002, 24 hours
Description: as §1
Cells and tissues were homogenized using RIPA buffer (Sigma) supplemented with protease and phosphatase inhibitors (Pierce). 10 μg of total proteins were heated for 10 min at 70° C. and loaded on NuPAGE Novex gels (Thermo Fisher Scientific). After transfer of proteins to nitrocellulose membranes, membranes were blocked with 5% milk in TBS-tween followed by incubation with anti-cleaved caspase 3 (1/1000; #9661, Cell Signaling) or anti-cleaved PARP1 (1/1000; #5625, Cell Signaling) primary antibodies. Visualization of protein was achieved by using horseradish peroxidase-coupled secondary antibodies (1/2000; #7074, Cell signaling). Detection signal was performed by using the ECL select chemiluminescent kit (GE Healthcare) and Image Quant LAS 4000 (GE Healthcare). Data were analyzed with Image J. Membranes were probed with anti-GAPDH (glyceraldehyde-3-phosphate deshydrogenase) antibody as normalizer (G9545, Sigma).

LLC1 cells = assay: γH2AX immunostaining in LLC1 cells; assay type: cell-based, mouse; details: 2 μM cisplatin, 10 nM KW-6002, 6 hours, FIG. 7B
Description: as §1
Cells were fixed with 4% paraformaldehyde, permeabilized with DPBS/0.1% Triton X100 and incubated with γH2AX (Ser139) antibody (1/400; #9718, Cell Signaling Technology) and then, Alexa Fluor 488 secondary antibody (1/200; Life Technologies). Samples were examined on an immunofluorescence microscope (Leica™ DMI8) and γH2AX nuclear foci were counted.

SMILES: CCn1c(=O)c2c(nc(/C=C/c3ccc(OC)c(OC)c3)n2C)n(CC)c1=O [KW-6002, 8-[(E)-2-(3,4-dimethoxyphenyl)vinyl]-1,3-diethyl-7-methyl-3,7-dihydro-1H-purine-2,6-dione]
- DNA damage: tail moment (H1975 cells [1]): did not impede the antitumoral effect of cisplatin
- efflux (RPTEC/hTERT1 cells): strongly enhanced
- efflux (H1975 cells [2]): significantly reduced
- BUN quantification, cisplatin-induced kidney injury [3]: protects from cisplatin-induced kidney injury
- apoptosis: caspase 3 (H1975 cells [4]; FIG. 7C): did not impede the antitumoral effect of cisplatin
- apoptosis: PARP (H1975 cells [4]; FIG. 7D): even potentiated the efficacy of cisplatin
- cell cycle: cyclin D1 (H1975 cells [4]; FIG. 7G): did not impede the antitumoral effect of cisplatin
- cell cycle: PCNA (H1975 cells [4]; FIG. 7H): even potentiated the efficacy of cisplatin
- DNA damage: γH2AX nuclear foci (LLC1 cells): increased number of H2AX+ cells
